Reference: PubChem BioAssay (NCI)
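Five compound concentrations were applied to cells in 96-well plates for 48 hours; endpoints were derived by simple linear interpolation of the resulting dose-response curve. Abbreviation: GI50, concentration required for 50% inhibition of growth. TGI: concentration producing complete growth inhibition.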

Columns and labels:
Experiment in all cases: inhibition of tumour cell growth, NCI panel, 48 h
UACC-62 melanoma = tested on: UACC-62 melanoma
SK-MEL-5 melanoma = tested on: SK-MEL-5 melanoma
SF-539 CNS = tested on: SF-539 CNS
OVCAR-5 ovarian = tested on: OVCAR-5 ovarian
RXF 393 renal = tested on: RXF 393 renal
NCI/ADR-RES ovarian = tested on: NCI/ADR-RES ovarian
COLO 205 colon = tested on: COLO 205 colon
CCRF-CEM leukemia = tested on: CCRF-CEM leukemia
HCC-2998 colon = tested on: HCC-2998 colon
EKVX NSCLC = tested on: EKVX NSCLC

Compound	TGI (UACC-62 melanoma)	TGI (SK-MEL-5 melanoma)	TGI (SF-539 CNS)	TGI (OVCAR-5 ovarian)	TGI (RXF 393 renal)	TGI (NCI/ADR-RES ovarian)	TGI (COLO 205 colon)	TGI (CCRF-CEM leukemia)	TGI (HCC-2998 colon)	TGI (EKVX NSCLC)	GI50 (UACC-62 melanoma)	GI50 (SK-MEL-5 melanoma)	GI50 (SF-539 CNS)	GI50 (OVCAR-5 ovarian)	GI50 (RXF 393 renal)	GI50 (NCI/ADR-RES ovarian)	GI50 (COLO 205 colon)	GI50 (CCRF-CEM leukemia)	GI50 (HCC-2998 colon)	GI50 (EKVX NSCLC)
CN(C)c1nc(N)c(C#N)c(C#N)c1C#N	> 10 µM	> 10 µM	> 10 µM	> 10 µM	> 10 µM	> 10 µM	> 10 µM	> 10 µM	> 10 µM	> 10 µM										
CCOC(=O)C(Cc1ccc(N(CCCl)CCCl)cc1)NC(=O)C(Cc1ccccc1)NC(C)=O (centres undefined)	> 0.277 µM	> 0.486 µM	> 0.294 µM	> 0.435 µM	0.259 µM	> 0.618 µM	> 0.321 µM	0.213 µM	> 1 µM	> 0.538 µM										
COc1ccc(C2CC(c3ccc(N(C)C)cc3)=NN2c2ccc(S(N)(=O)=O)cc2)cc1 (centres undefined)	> 100 µM	3.37 µM	56.1 µM	> 100 µM	7.52 µM	> 100 µM	5.49 µM	> 100 µM	12.4 µM	> 100 µM	5.85 µM	1.73 µM	4.32 µM	6.57 µM	2.56 µM	4.73 µM	2.46 µM	5.24 µM	2.99 µM	3.79 µM
O=S(=O)(O)c1ccc2cc3nn(-c4ccc(/C=C/c5ccc(-n6nc7cc8ccc(S(=O)(=O)O)cc8cc7n6)cc5S(=O)(=O)O)c(S(=O)(=O)O)c4)nc3cc2c1	> 100 µM	> 100 µM	> 100 µM	> 100 µM	> 100 µM	> 100 µM	> 100 µM	> 100 µM	> 100 µM	> 100 µM	34.1 µM	94.7 µM	> 100 µM	62.5 µM	> 100 µM	> 100 µM	74 µM	30.8 µM	73.8 µM	95.2 µM
COc1ccc(-c2[nH]c3ccccc3c2/C=C(\C#N)S(=O)(=O)c2ccccc2)cc1	16.3 µM	2.73 µM	1.13 µM	> 100 µM	> 100 µM	> 25.8 µM	0.67 µM		5.99 µM	> 100 µM	0.597 µM	0.343 µM	0.299 µM	1.84 µM	1.02 µM	0.427 µM	0.253 µM	0.807 µM	1.11 µM	1.25 µM
COc1ccc(/C=N\Nc2nc(SCC(C)C)nc(-c3ccc(OC)cc3)c2C#N)cc1	> 100 µM	51.2 µM	20.1 µM	> 100 µM	15.8 µM	85.4 µM	23.4 µM	> 100 µM	99.4 µM	86.9 µM	25.2 µM	13.6 µM	6.28 µM	20.4 µM	2.81 µM	10.8 µM	3.72 µM	9.78 µM	24.7 µM	12.4 µM
